Experimental data from US20080146540A1, “Methods of diagnosis and treatment for asthma, allergic rhinitis and other respiratory diseases based on haplotype association” (priority 2003, published 2008).

Legend:
IL-1β = settings: standard in vitro pharmacological testing procedures (WO 97/49406); cited from earlier work
MMP-9 = test: Phase II clinical study CEP-1347-201: MMP-9 change from baseline; type: in vivo, human; settings: for MMP-9 Change from Baseline at Week 8, LS Mean: ANCOVA
Source text: Matrix metalloproteinases (MMPs) are members of a family of proteolytic enzymes that degrade the extracellular matrix and […] tissue inhibitors (TIMPs). Up regulation of MMP-9 results in subepithelial collagen deposition and airway remodeling leading to irreversible airways obstruction in asthma patients. Airway remodeling has and continues to be a research goal of anti-asthma therapies. […] The change in the […] reached statistical significance and the comparison of the pooled CEP-1347 groups versus placebo approached statistical significance (p=0.06).

[1] = tested on: exhaled nitric oxide (eNO); test: Phase II clinical study CEP-1347-201: exhaled nitric oxide (eNO) change from baseline; type: in vivo, human; settings: for eNO Change from Baseline at Week 8, LS Mean: ANCOVA
Source text: eNO has been used as a biomarker for measuring airways inflammation. eNO correlates with eosinophilic inflammation in asthmatic patients and is increased in patients with untreated asthma and decreased with corticosteroid treatment.

MLK1 = MLK1 (Homo sapiens, UniProt P80192); settings: MLK active site; cited from earlier work
Sequence of MLK1 (P80192 whole entry): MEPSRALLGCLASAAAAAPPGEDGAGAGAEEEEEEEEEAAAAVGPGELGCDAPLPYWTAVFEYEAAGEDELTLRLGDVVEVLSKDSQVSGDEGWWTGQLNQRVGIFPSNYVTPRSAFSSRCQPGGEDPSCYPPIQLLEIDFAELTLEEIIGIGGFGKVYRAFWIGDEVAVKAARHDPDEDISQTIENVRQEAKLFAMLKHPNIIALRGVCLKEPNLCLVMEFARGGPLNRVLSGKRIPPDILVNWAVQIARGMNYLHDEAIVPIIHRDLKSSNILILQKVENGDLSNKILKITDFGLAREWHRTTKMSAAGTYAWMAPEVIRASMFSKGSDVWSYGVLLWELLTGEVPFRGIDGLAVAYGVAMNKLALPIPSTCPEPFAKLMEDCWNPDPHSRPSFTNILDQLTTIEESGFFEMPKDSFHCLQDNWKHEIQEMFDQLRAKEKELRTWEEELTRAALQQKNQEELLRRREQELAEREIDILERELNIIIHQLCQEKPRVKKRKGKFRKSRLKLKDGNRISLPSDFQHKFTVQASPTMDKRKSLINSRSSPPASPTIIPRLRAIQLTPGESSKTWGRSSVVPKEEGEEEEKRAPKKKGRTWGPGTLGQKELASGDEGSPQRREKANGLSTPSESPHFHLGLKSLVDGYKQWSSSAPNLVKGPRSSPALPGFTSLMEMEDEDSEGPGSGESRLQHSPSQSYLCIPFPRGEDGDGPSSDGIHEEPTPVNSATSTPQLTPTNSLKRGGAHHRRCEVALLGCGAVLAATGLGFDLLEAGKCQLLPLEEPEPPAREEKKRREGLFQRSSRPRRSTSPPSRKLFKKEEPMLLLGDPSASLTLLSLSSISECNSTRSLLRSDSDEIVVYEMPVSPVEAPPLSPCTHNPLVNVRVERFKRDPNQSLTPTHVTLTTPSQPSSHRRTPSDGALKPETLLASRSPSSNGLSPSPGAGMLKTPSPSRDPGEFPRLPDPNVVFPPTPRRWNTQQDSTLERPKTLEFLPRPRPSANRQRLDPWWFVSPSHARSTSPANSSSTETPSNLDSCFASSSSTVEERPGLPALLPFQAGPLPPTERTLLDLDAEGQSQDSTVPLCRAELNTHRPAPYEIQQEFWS

TNFα [2] = settings: lipopolysaccharide challenge; cited from earlier work
IL-6 = test: Phase II clinical study CEP-1347-201: sputum IL-6; type: in vivo, human; settings: samples not collected in a systematic manner
IL-8 = test: Phase II clinical study CEP-1347-201: sputum IL-8; type: in vivo, human; settings: samples not collected in a systematic manner
VEGF = test: Phase II clinical study CEP-1347-201: additional biomarkers of inflammation; type: in vivo, human; settings: prior to and 4 and 8 weeks after study drug administration; CEP-1347 vs placebo groups
Experimental: (§1) Biomarkers of inflammation were measured prior to and 4 and 8 weeks after study drug administration.

ICAM-1 = test: as above; type: in vivo, human; settings: prior to and 4 and 8 weeks after study drug administration; CEP-1347 vs placebo groups
Experimental: as §1

VCAM-1 = test: as above; type: in vivo, human; settings: prior to and 4 and 8 weeks after study drug administration; CEP-1347 vs placebo groups
Experimental: as §1

MCP-1 = test: as above; type: in vivo, human; settings: prior to and 4 and 8 weeks after study drug administration; CEP-1347 vs placebo groups
Experimental: as §1

sE-Selectin = test: Phase II clinical study CEP-1347-201: sE-Selectin change from baseline; type: in vivo, human; settings: for sE Selection Change from Baseline at Week 8, LS Mean: ANCOVA
Source text: Results from an ANCOVA (analysis of covariance) including treatment group as a factor and the baseline value as a covariate are presented in Table 24.

TNFα [3] = settings: standard in vitro pharmacological testing procedures (WO 97/49406); cited from earlier work

In the case of `CCSCc1ccc2c(c1)c1c3c(c4c5cc(CSCC)ccc5n5c4c1n2C1CC(O)(C(=O)OC)C5(C)O1)CNC3=O` (centres unmarked) [CEP-1347], the “production of IL-1β by cultured cells” value (IL-1β) is listed as “inhibit the production”, the “MMP 9 Change from baseline, Mean” value (MMP-9; 10 mg BID, 4 Weeks) is listed as -89.2 pg/mL and the “MMP 9 Change from baseline, Median” value (MMP-9; 10 mg BID, 4 Weeks) is listed as -79.4 pg/mL. For the same molecule, the “MMP 9 Observed Values, Mean” value (MMP-9; 10 mg BID, 4 Weeks) was 723.4 pg/mL, the “MMP 9 Observed Values, Median” value (MMP-9; 10 mg BID, 4 Weeks) was 636.5 pg/mL and the “MMP 9 Change from baseline, Mean” value (MMP-9; 10 mg BID, 8 Weeks) was -108.5 pg/mL. For the same molecule, the “MMP 9 Change from baseline, Median” value (MMP-9; 10 mg BID, 8 Weeks) was -87.6 pg/mL, the “MMP 9 Observed Values, Mean” value (MMP-9; 10 mg BID, 8 Weeks) was 687.4 pg/mL and the “MMP 9 Observed Values, Median” value (MMP-9; 10 mg BID, 8 Weeks) was 596.2 pg/mL. For the same molecule, the “MMP-9 Change from Baseline at Week 8, LS Mean” value (“MMP-9 Change … LS Mean” below) (MMP-9; 10 mg BID, p 0.23) was −98.4, the “MMP-9 change from baseline at week 8 (ANCOVA)” value (MMP-9; 25 mg BID group relative to placebo, p=0.04) was “statistically significant reduction” and the “MMP 9 Change from baseline, Mean” value (MMP-9; 25 mg BID, 4 Weeks) was -104.2 pg/mL. For the same molecule, the “MMP 9 Change from baseline, Median” value (MMP-9; 25 mg BID, 4 Weeks) was -104.8 pg/mL, the “MMP 9 Observed Values, Mean” value (MMP-9; 25 mg BID, 4 Weeks) was 660.4 pg/mL and the “MMP 9 Observed Values, Median” value (MMP-9; 25 mg BID, 4 Weeks) was 623.4 pg/mL. For the same molecule, the “MMP 9 Change from baseline, Mean” value (MMP-9; 25 mg BID, 8 Weeks) was -147.6 pg/mL, the “MMP 9 Change from baseline, Median” value (MMP-9; 25 mg BID, 8 Weeks) was -85.0 pg/mL and the “MMP 9 Observed Values, Mean” value (MMP-9; 25 mg BID, 8 Weeks) was 633.5 pg/mL. The “MMP 9 Observed Values, Median” value (MMP-9; 25 mg BID, 8 Weeks) was 582.1 pg/mL, the “MMP-9 Change … LS Mean” value (MMP-9; 25 mg BID, p 0.04) was −144 and the “MMP 9 Change from baseline, Mean” value (MMP-9; 50 mg BID, 4 Weeks) was -82.4 pg/mL. The “MMP 9 Change from baseline, Median” value (MMP-9; 50 mg BID, 4 Weeks) was -63.6 pg/mL, the “MMP 9 Observed Values, Mean” value (MMP-9; 50 mg BID, 4 Weeks) was 704.1 pg/mL and the “MMP 9 Observed Values, Median” value (MMP-9; 50 mg BID, 4 Weeks) was 704.2 pg/mL. The “MMP 9 Change from baseline, Mean” value (MMP-9; 50 mg BID, 8 Weeks) was -114.0 pg/mL, the “MMP 9 Change from baseline, Median” value (MMP-9; 50 mg BID, 8 Weeks) was -60.1 pg/mL and the “MMP 9 Observed Values, Mean” value (MMP-9; 50 mg BID, 8 Weeks) was 682.5 pg/mL. The “MMP 9 Observed Values, Median” value (MMP-9; 50 mg BID, 8 Weeks) was 655.1 pg/mL, the “MMP-9 Change … LS Mean” value (MMP-9; 50 mg BID, p 0.19) was −104 and the “MMP-9 change from baseline at week 8 (ANCOVA)” value (MMP-9; all CEP-1347 treatment groups relative to placebo, pooled groups vs placebo p=0.06) was “greater reduction”. The “eNO Change from Baseline at Week 8, LS Mean” value (“eNO Change … LS Mean” below) ([1]; 10 mg BID, p 0.26) was −4.86, the “eNO Change … LS Mean” value ([1]; 25 mg BID, p 0.86) was −1.88 and the “eNO Change … LS Mean” value ([1]; 50 mg BID, p 0.58) was −3.08. For the same molecule, the “eNO change from baseline at week 8 (ANCOVA)” value ([1]; all CEP-1347 treatment groups relative to placebo, none of the changes achieved statistical significance) was “greater decrease”, the “kinetics of inhibition of MLK kinases, mode of action” value (MLK1) was “competitive with the binding of adenosine triphosphate” and the “production of TNFα by mice after LPS challenge” value (TNFα [2]) was “reduces production”. The “sputum IL-6 (ANCOVA)” value (IL-6) was “no clear treatment related trends or statistically significant changes”, the “sputum IL-8 (ANCOVA)” value (IL-8) was “no clear treatment related trends or statistically significant changes” and the “concentration of VEGF” value (VEGF) was “No differences”. For the same molecule, the “concentration of ICAM-1” value (ICAM-1) was “No differences”, the “concentration of VCAM-1” value (VCAM-1) was “No differences” and the “concentration of MCP-1” value (MCP-1) was “No differences”. The “sE Selection Change from Baseline at Week 8, LS Mean” value (from here on “sE Selection Change from Baseline”) (sE-Selectin; 10 mg BID, p 0.12) was −1.49, the “sE Selection Change from Baseline” value (sE-Selectin; 25 mg BID, p 0.005) was −3.18 and the “sE Selection Change from Baseline” value (sE-Selectin; 50 mg BID, p 0.26) was −1.00. For the same molecule, the sE-Selection levels (sE-Selectin; CEP-1347 treated groups compared to placebo, p=0.02) was “significantly lower” and the “production of TNFα by cultured cells” value (TNFα [3]) was “inhibit the production”.
